Read-outs that look alike come from different tables or passages of the source.
Test system: HCV genotype 1b replicon in Huh 7 cells (HCV 1b_Huh-Luc/Neo-ET cell line)
Experiment: HCV replicon assay (luciferase readout)
Type: cell-based
Conditions: Hepatitis C virus
Procedure: Biological activity of the compounds of the invention was determined using an HCV replicon assay. The HCV 1b_Huh-Luc/Neo-ET cell line persistently expressing a bicistronic genotype 1b replicon in Huh 7 cells was obtained from ReBLikon GMBH. This cell line was used to test compound inhibition using luciferase enzyme activity readout as a measurement of compound inhibition of replicon levels.
On Day 1 (the day after plating cells), each compound is added in triplicate to the cells. Plates are incubated for 72 h prior to determining luciferase levels. Enzyme activity was measured using a Bright-Glo Kit (cat. number E2620) manufactured by Promega Corporation. The following equation was used to generate a percent control value for each compound. % Control=(Compound Luciferase Level/Control Luciferase Level)*100
The EC50 value was determined using GraphPad Prism and the following equation: Y=Bottom asymptote+(Top asymptote−Bottom asymptote)/(1+10^((Log EC50−X)*HillSlope))
EC50 values of compounds are determined several times in the replicon assay to generate average EC50 values.

[1] = Huh-7, Table 1, EC50 range class, replicon luciferase, 72 h incubation, average EC50, read-out: Inhibition of HCV genotype 1b
[2] = Huh-7, 72 h, read-out: Inhibition of HCV genotype lb

Row | SMILES | EC50 [1] [nM] | EC50 [2] [nM]
1 | COCCOc1c(-c2ccc(-c3cnc([C@@H]4COCCN4C(=O)[C@@H](NC(=O)OC)C(C)C)[nH]3)cc2)ccc(-c2cnc([C@@H]3CCCN3C(=O)[C@@H](NC(=O)OC)C(C)C)[nH]2)c1OCCOC [Compound 40] | 1 to 9.9 | 
2 | COCCOc1c(-c2ccc(-c3cnc([C@@H]4CSCN4C(=O)[C@@H](NC(=O)OC)C(C)C)[nH]3)cc2)ccc(-c2cnc([C@@H]3CCCN3C(=O)[C@@H](NC(=O)OC)C(C)C)[nH]2)c1OCCOC [Compound 41] | 1 to 9.9 | 
3 | COC(=O)N[C@H](C(=O)N1CCC[C@H]1c1ncc(-c2ccc3cc2OCCOCCOCCOCCOCCOc2cc-3ccc2-c2cnc([C@@H]3CCCN3C(=O)[C@@H](NC(=O)OC)C(C)C)[nH]2)[nH]1)C(C)C [Compound 42] | 1 to 9.9 | 
4 | COC(=O)N[C@H](C(=O)N1CCC[C@H]1c1ncc(-c2ccc3c(c2)OCCOCCOCCOCCOCCOc2cc-3ccc2-c2cnc([C@@H]3CCCN3C(=O)[C@@H](NC(=O)OC)C(C)C)[nH]2)[nH]1)C(C)C [Compound 43] | 1 to 9.9 | 
5 | COC(=O)N[C@H](C(=O)N1CCC[C@H]1c1ncc(-c2ccc3c(c2)OCCOCCOCCOc2cc(-c4cnc([C@@H]5CCCN5C(=O)[C@@H](NC(=O)OC)C(C)C)[nH]4)ccc2-3)[nH]1)C(C)C [Compound 44] | 1 to 9.9 | 
6 | COCCOc1c(-c2ccc(-c3cnc([C@@H]4CCCN4C(=O)[C@@H](NC(=O)OC)C(C)C)[nH]3)cc2)ccc(-c2cnc([C@@H]3CCCN3C(=O)[C@@H](c3ccccc3)N3CCCC3)[nH]2)c1OCCOC [Compound 45] | < 1 | 
7 | COCCOc1cc(-c2cnc([C@@H]3CCCN3C(=O)[C@@H](NC(=O)OC)C(C)C)[nH]2)ccc1-c1ccc(-c2cnc([C@@H]3CCCN3C(=O)[C@@H](NC(=O)OC)C(C)C)[nH]2)c(OCCOC)c1 [Compound 51] |  | < 1
8 | COCCOc1cc(-c2cnc([C@@H]3CCCN3C(=O)[C@@H](NC(=O)OC)C(C)C)[nH]2)ccc1-c1ccc(-c2cnc([C@@H]3CCCN3C(=O)[C@@H](NC(=O)OC)C(C)C)[nH]2)cc1 [Compound 52] |  | < 1
9 | COCCOc1cc(-c2ccc(-c3cnc([C@@H]4CCCN4C(=O)[C@@H](NC(=O)OC)C(C)C)[nH]3)cc2)ccc1-c1cnc([C@@H]2CCCN2C(=O)[C@@H](NC(=O)OC)C(C)C)[nH]1 [Compound 53] |  | < 1
10 | COCCOc1cc(-c2ccc(-c3cnc([C@@H]4CCCN4C(=O)[C@@H](NC(=O)OC)C(C)C)[nH]3)c(OCCOC)c2)ccc1-c1cnc([C@@H]2CCCN2C(=O)[C@@H](NC(=O)OC)C(C)C)[nH]1 [Compound 54] |  | 1 to 9.9
11 | COCCOc1cc(-c2cnc([C@@H]3CCCN3C(=O)[C@@H](NC(=O)OC)C(C)C)[nH]2)c(OCCOC)cc1-c1ccc(-c2cnc([C@@H]3CCCN3C(=O)[C@@H](NC(=O)OC)C(C)C)[nH]2)cc1 [Compound 55] |  | < 1
12 | COCCOc1c(-c2ccc(-c3cnc([C@@H]4C[C@@H](O)CN4C(=O)[C@@H](NC(=O)OC)C(C)C)[nH]3)cc2)ccc(-c2cnc([C@@H]3CCCN3C(=O)[C@@H](NC(=O)OC)C(C)C)[nH]2)c1OCCOC [Compound 60] |  | < 1
13 | COCCOc1cc(-c2cnc([C@@H]3CCCN3C(=O)[C@H](COC)NC(=O)OC)[nH]2)ccc1-c1ccc(-c2cnc([C@@H]3CCCN3C(=O)[C@H](COC)NC(=O)OC)[nH]2)cc1OCCOC [Compound 75] |  | 1 to 9.9
14 | COCCOc1cc(-c2cnc([C@@H]3CCCN3C(=O)[C@@H](NC(=O)OC)C(C)(C)C)[nH]2)ccc1-c1ccc(-c2cnc([C@@H]3CCCN3C(=O)[C@@H](NC(=O)OC)C(C)(C)C)[nH]2)cc1OCCOC [Compound 76] |  | < 1
15 | COCCOc1cc(-c2cnc([C@@H]3CCCN3C(=O)[C@@H](NC(=O)OC)C3CCOCC3)[nH]2)ccc1-c1ccc(-c2cnc([C@@H]3CCCN3C(=O)[C@@H](NC(=O)OC)C3CCOCC3)[nH]2)cc1OCCOC [Compound 77] |  | 1 to 9.9
16 | COCCOc1cc(-c2cnc([C@@H]3CCCN3C(=O)[C@H](NC(=O)OC)c3ccsc3)[nH]2)ccc1-c1ccc(-c2cnc([C@@H]3CCCN3C(=O)[C@H](NC(=O)OC)c3ccsc3)[nH]2)cc1OCCOC [Compound 78] |  | 1 to 9.9
17 | COCCOc1cc(-c2cnc([C@@H]3CCCN3C(=O)[C@H](NC(=O)OC)c3cccs3)[nH]2)ccc1-c1ccc(-c2cnc([C@@H]3CCCN3C(=O)[C@H](NC(=O)OC)c3cccs3)[nH]2)cc1OCCOC [Compound 79] |  | < 1
18 | COC(=O)N[C@H](C(=O)N1CCC[C@H]1c1ncc(-c2ccc(-c3ccc(-c4cnc([C@@H]5CCCN5C(=O)[C@@H](NC(=O)OC)C(C)C)[nH]4)c4c3OCCOCCOCCO4)cc2)[nH]1)C(C)C [Compound 80] |  | < 1
19 | COCCOc1cc(-c2cnc([C@@H]3CCCN3C(=O)[C@@H](c3ccccc3)N(C)C)[nH]2)ccc1-c1ccc(-c2cnc([C@@H]3CCCN3C(=O)[C@@H](c3ccccc3)N(C)C)[nH]2)cc1OCCOC [Compound 81] |  | 1 to 9.9
20 | COCCOc1cc(-c2cnc([C@@H]3CCCN3C(=O)[C@@H](c3ccccc3)N3CCCC3)[nH]2)ccc1-c1ccc(-c2cnc([C@@H]3CCCN3C(=O)[C@@H](c3ccccc3)N3CCCC3)[nH]2)cc1OCCOC [Compound 82] |  | 1 to 9.9
21 | COCCOc1cc(-c2cnc([C@@H]3CCCN3C(=O)[C@H](NC(C)=O)c3ccccc3)[nH]2)ccc1-c1ccc(-c2cnc([C@@H]3CCCN3C(=O)[C@H](NC(C)=O)c3ccccc3)[nH]2)cc1OCCOC [Compound 83] |  | 1 to 9.9
22 | COCCOc1cc(-c2cnc([C@@H]3CCCN3C(=O)[C@H](NS(C)(=O)=O)c3ccccc3)[nH]2)ccc1-c1ccc(-c2cnc([C@@H]3CCCN3C(=O)[C@H](NS(C)(=O)=O)c3ccccc3)[nH]2)cc1OCCOC [Compound 84] |  | 1 to 9.9
23 | CNC(=O)N[C@@H](C(=O)N1CCC[C@H]1c1ncc(-c2ccc(-c3ccc(-c4cnc([C@@H]5CCCN5C(=O)[C@H](NC(=O)NC)c5ccccc5)[nH]4)cc3OCCOC)c(OCCOC)c2)[nH]1)c1ccccc1 [Compound 85] |  | 1 to 9.9
24 | COCCOc1cc(-c2cnc([C@@H]3CCCN3C(=O)[C@H](C)NC(=O)OC)[nH]2)ccc1-c1ccc(-c2cnc([C@@H]3CCCN3C(=O)[C@@H](NC(=O)OC)C(C)C)[nH]2)cc1OCCOC [Compound 86] |  | 1 to 9.9
25 | COCCOc1cc(-c2cnc([C@@H]3CCCN3C(=O)[C@H](COC)NC(=O)OC)[nH]2)ccc1-c1ccc(-c2cnc([C@@H]3CCCN3C(=O)[C@@H](NC(=O)OC)C(C)C)[nH]2)cc1OCCOC [Compound 87] |  | 1 to 9.9
26 | COCCOc1cc(-c2cnc([C@@H]3CCCN3C(=O)[C@@H](NC(=O)OC)C(C)C)[nH]2)ccc1-c1ccc(-c2cnc([C@@H]3CCCN3C(=O)[C@H](NC(=O)OC)c3ccsc3)[nH]2)cc1OCCOC [Compound 88] |  | < 1
27 | COCCOc1cc(-c2cnc([C@@H]3CCCN3C(=O)[C@@H](NC(=O)OC)C(C)C)[nH]2)ccc1-c1ccc(-c2cnc([C@@H]3CCCN3C(=O)[C@H](NC(=O)OC)c3cccs3)[nH]2)cc1OCCOC [Compound 89] |  | < 1
28 | COCCOc1cc(-c2cnc([C@@H]3CCCN3C(=O)[C@@H](NC(=O)OC)C(C)C)[nH]2)ccc1-c1ccc(-c2cnc([C@@H]3CCCN3C(=O)[C@@H](c3ccccc3)N(C)C)[nH]2)cc1OCCOC [Compound 90] |  | 1 to 9.9
29 | COCCOc1c(-c2ccc(-c3cnc([C@@H]4CCCCN4C(=O)[C@@H](NC(=O)OC)C(C)C)[nH]3)cc2)ccc(-c2cnc([C@@H]3CCCCN3C(=O)[C@@H](NC(=O)OC)C(C)C)[nH]2)c1OCCOC [Compound 91] |  | 1 to 9.9
30 | COCCOc1cc(-c2cnc([C@@H]3CCCN3C(=O)[C@@H](NC(=O)OC)C(C)C)[nH]2)cc(OCCOC)c1-c1ccc(-c2cnc([C@@H]3CCCN3C(=O)[C@@H](NC(=O)OC)C(C)C)[nH]2)cc1 [Compound 92] |  | < 1
